Measurements from ChEMBL document CHEMBL5241107, “Discovery of an eIF4A Inhibitor with a Novel Mechanism of Action” (J Med Chem, 2021).
The source made the active and inactive calls. The rule behind the calls is not given here.

What was measured:
[1] = molecular target: T1, Eukaryotic initiation factor 4A-I (Homo sapiens, UniProt P60842); assay: Inhibition of human recombinant N-terminal His6-tagged eIF4A expressed in Escherichia coli BL21 CodonPlus cells using ATP and yeast RNA as substrate preincubated with enzyme for 20 mins followed by susbtrate addition and measured after 4 hrs by Malachite green ATPase assay
T1 sequence (P60842 whole entry): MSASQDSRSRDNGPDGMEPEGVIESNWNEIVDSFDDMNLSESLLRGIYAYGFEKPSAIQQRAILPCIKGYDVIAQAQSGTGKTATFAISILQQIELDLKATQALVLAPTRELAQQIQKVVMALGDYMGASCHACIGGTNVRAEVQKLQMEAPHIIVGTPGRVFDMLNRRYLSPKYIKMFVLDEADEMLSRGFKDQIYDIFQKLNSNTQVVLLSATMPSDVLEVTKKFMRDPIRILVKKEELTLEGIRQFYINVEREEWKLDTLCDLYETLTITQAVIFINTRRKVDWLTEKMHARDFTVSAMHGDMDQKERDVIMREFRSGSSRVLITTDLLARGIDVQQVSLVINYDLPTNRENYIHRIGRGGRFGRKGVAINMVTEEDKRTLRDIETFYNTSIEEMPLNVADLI

[2] = tested on: BJAB; assay: Cytotoxicity against human BJAB cells assessed as reduction in cell viability measured after 72 hrs by CellTiter-Glo luminescent assay; assay type: functional, cell-based
[3] = tested on: Reticulocyte; assay: Inhibition of eIF4A in rabbit reticulocyte lysate assessed as inhibition of cap-dependent translation of firefly luciferase using bicistronic luciferase reporter [pSP/(CAG)33/FF/HCV/Ren.pA51] at 100 nM incubated for 90 mins by luciferase reporter gene based luminescence analysis; assay type: subcellular; conditions: Oryctolagus cuniculus
[4] = molecular target: T1, Eukaryotic initiation factor 4A-I; assay: Binding affinity to eIF4A in human A549 cells assessed as increase in thermal stability of the protein at 100 nM incubated for 90 mins by CETSA analysis; assay type: cell-based
[5] = tested on: Reticulocyte; assay: Inhibition of IRES-dependent translation of renilla luciferase in rabbit reticulocyte lysates using bicistronic luciferase reporter [pSP/(CAG)33/FF/HCV/Ren.pA51] at 100 nM incubated for 90 mins by luciferase reporter gene based luminescence analysis; assay type: functional, subcellular; conditions: Oryctolagus cuniculus
[6] = tested on: Reticulocyte; assay: Inhibition of IRES-dependent translation of renilla luciferase in rabbit reticulocyte lysates using bicistronic luciferase reporter [pSP/(CAG)33/FF/HCV/Ren.pA51] at 600 uM incubated for 90 mins by luciferase reporter gene based luminescence analysis; assay type: functional, subcellular; conditions: Oryctolagus cuniculus
[7] = tested on: Reticulocyte; assay: Inhibition of cap-dependent translation of firefly luciferase in rabbit reticulocyte lysates using bicistronic luciferase reporter [pSP/(CAG)33/FF/HCV/Ren.pA51] at 600 uM incubated for 90 mins by luciferase reporter gene based luminescence analysis; assay type: functional, subcellular; conditions: Oryctolagus cuniculus
[8] = molecular target: T1, Eukaryotic initiation factor 4A-I; assay: Displacement of MANT-ATP from human recombinant N-terminal His6-tagged eIF4A expressed in Escherichia coli BL21 CodonPlus cells at 1 mM preincubated with enzyme and yeast RNA for 20 mins followed by MANT-ATP addition for 30 mins by fluorescence polarization assay; conditions: time 50.0 min
[9] = molecular target: T1, Eukaryotic initiation factor 4A-I; assay: Inhibition of helicase activity of human recombinant N-terminal His6-tagged eIF4A expressed in Escherichia coli BL21 CodonPlus cells assessed as decrease in single stranded signal using Cy3-labeled RNA strand and unlabeled DNA strand by native PAGE analysis
[10] = molecular target: T1, Eukaryotic initiation factor 4A-I; assay: Inhibition of helicase activity of human recombinant N-terminal His6-tagged eIF4A expressed in Escherichia coli BL21 CodonPlus cells using Cy3-labeled RNA strand and unlabeled DNA strand by native PAGE analysis
[11] = molecular target: T1, Eukaryotic initiation factor 4A-I; assay: Inhibition of helicase activity of human recombinant N-terminal His6-tagged eIF4A expressed in Escherichia coli BL21 CodonPlus cells assessed as increase in double stranded signal using Cy3-labeled RNA strand and unlabeled DNA strand by native PAGE analysis
[12] = molecular target: T1, Eukaryotic initiation factor 4A-I; assay: Competitive inhibition of human recombinant N-terminal His6-tagged eIF4A expressed in Escherichia coli BL21 CodonPlus cells assessed as […] with constant Vmax of RNA using 250 uM ATP and varying concentration of yeast RNA as substrate preincubated with enzyme for 20 mins followed by substrate addition and measured after 1 to 7 hrs by Malachite green ATPase assay; conditions: time 80-440 min
[13] = molecular target: T1, Eukaryotic initiation factor 4A-I; assay: Uncompetitive inhibition of human recombinant N-terminal His6-tagged eIF4A expressed in Escherichia coli BL21 CodonPlus cells assessed as decrease in Km and Vmax of ATP using varying concentrations of ATP and 250 ug/ml yeast RNA as substrate preincubated with enzyme for 20 mins followed by substrate addition and measured after 1 to 7 hrs by Malachite green ATPase assay; conditions: time 80-440 min
[14] = Homo sapiens, BJAB, 72 h, read-out: EC50

| Structure (SMILES) | IC50 [1] | also measured |
| --- | --- | --- |
| O=C(O)c1cc(-c2ccc(-c3cccc(Oc4ccccc4)c3)o2)nc2ccc([N+](=O)[O-])cc12 | 22.2 µM | – |
| O=C(O)c1cc(-c2ccc(-c3ccccc3Oc3ccccc3)o2)nc2ccc([N+](=O)[O-])cc12 | 21 µM | – |
| CCCCc1ccc(-c2ccc(-c3cc(C(=O)O)c4cc([N+](=O)[O-])ccc4n3)cn2)cc1 | 60 µM | – |
| O=C(O)c1cc(-c2ccc(-c3cccc(-c4ccccc4)c3)o2)nc2ccc([N+](=O)[O-])cc12 | 25.8 µM | – |
| CCCCc1ccc(-c2ccc(-c3cc(C(=O)O)c4cc(F)c(F)cc4n3)o2)cc1 | 54 µM | – |
| CCCCc1ccc(-c2ccc(-c3cc(C(=O)O)c4cccc(C(F)(F)F)c4n3)o2)cc1 | 26.9 µM | – |
| CCCCc1ccc(-c2ccc(-c3cc(C(=O)O)c4ccccc4n3)o2)cc1 | > 150 µM | – |
| CCCCc1ccc(-c2ccc(-c3cc(C(=O)O)c4cccc(Br)c4n3)o2)cc1 | 23.8 µM | – |
| CCCCc1ccc(-c2ccc(-c3cc(C(=O)O)c4cc([N+](=O)[O-])ccc4n3)[nH]2)cc1 | 62.5 µM | – |
| CCCCc1ccc(-c2ccc(-c3cc(C(=O)O)c4ccc(C(F)(F)F)cc4n3)o2)cc1 | 61 µM | – |
| CCCCc1ccc(-c2ccc(-c3cc(C(=O)O)c4cc(N)ccc4n3)o2)cc1 | > 150 µM | EC50 ([2]; bjab): Not Active |
| CCCCc1ccc(-c2ccc(-c3cc(C(=O)OCC)c4cc(Br)ccc4n3)o2)cc1 | 129 µM | – |
| O=C(O)c1cc(-c2ccc(-c3ccc4c(c3)OCO4)o2)nc2ccc([N+](=O)[O-])cc12 | > 150 µM | – |
| O=C(O)c1cc(-c2ccc(-c3cccc4ccccc34)o2)nc2ccc([N+](=O)[O-])cc12 | 36.7 µM | – |
| Nc1ccc(-c2ccc(-c3cc(C(=O)O)c4cc([N+](=O)[O-])ccc4n3)o2)cc1 | > 150 µM | EC50 ([2]; bjab): Not Active |
| COC(=O)[C@H]1[C@@H](O)[C@@]2(O)c3c(OC)cc(O[C@@H]4O[C@@H]([C@H](O)CO)CO[C@H]4OC)cc3O[C@@]2(c2ccc(OC)cc2)[C@@H]1c1ccccc1 | – | inhibition [3]: Active; Activity [4]: Active; inhibition [5]: inactive |
| O=C(O)c1cc(-c2ccc(-c3ccccc3)o2)nc2ccc([N+](=O)[O-])cc12 | > 150 µM | – |
| C[C@@H]1C[C@@H]([C@H](O)CC2CC(=O)NC(=O)C2)C(=O)[C@@H](C)C1 | – | inhibition [6]: Active; inhibition [7]: Active |
| CCCc1ccc(-c2ccc(-c3cc(C(=O)O)c4cc([N+](=O)[O-])ccc4n3)o2)cc1 | 40.9 µM | – |
| CCCCc1ccc(-c2ccc(-c3cc(C(=O)O)c4cc(OC)ccc4n3)o2)cc1 | 53.5 µM | – |
| CC(C)(C)OC(=O)Nc1ccc(-c2ccc(-c3cc(C(=O)O)c4cc([N+](=O)[O-])ccc4n3)o2)cc1 | 140 µM | – |
| CCCCc1ccc(-c2cccc(-c3cc(C(=O)O)c4cc([N+](=O)[O-])ccc4n3)n2)cc1 | 85.8 µM | – |
| CCCCc1ccc(-c2cccc(-c3cc(C(=O)O)c4cc([N+](=O)[O-])ccc4n3)c2)cc1 | 74.1 µM | – |
| O=C(O)c1cc(-c2ccc(-c3ccc(-c4ccccc4)cc3)o2)nc2ccc([N+](=O)[O-])cc12 | 66.1 µM | – |
| CCCCc1ccc(-c2ccc(-c3cc(C(=O)O)c4cc(C)cc(C)c4n3)o2)cc1 | 111 µM | – |
| CCCCc1ccc(-c2ccc(-c3cc(C(=O)O)c4cc(Cl)ccc4n3)o2)cc1 | 44 µM | – |
| CCCCc1ccc(-c2ccc(-c3cc(C(=O)O)c4cccc(Cl)c4n3)o2)cc1 | 73.3 µM | – |

| Structure (SMILES) | IC50 [1] | also measured |
| --- | --- | --- |
| CCCCc1ccc(-c2ccc(-c3cc(C(=O)O)c4cc(NC(C)=O)ccc4n3)o2)cc1 | 126 µM | EC50 ([2]; bjab): Not Active |
| CCCCc1ccc(-c2ccc(-c3cc(C(=O)O)c4cc(OC(F)(F)F)ccc4n3)o2)cc1 | > 150 µM | – |
| CCCCc1ccc(-c2ccc(-c3cc(C(=O)OCC)c4cc([N+](=O)[O-])ccc4n3)o2)cc1 | > 150 µM | EC50 [2, 14]: > 10 µM |
| CCCCc1ccc(-c2ccc(-c3cc(C(=O)O)c4cc([N+](=O)[O-])ccc4n3)s2)cc1 | 62.3 µM | – |
| CCCCc1ccc(-c2ccc(-c3cc(C(=O)O)c4cc(F)ccc4n3)o2)cc1 | 54.1 µM | – |
| CCCCc1ccc(-c2ccc(-c3cc(C(=O)O)c4ccc(Br)cc4n3)o2)cc1 | 33 µM | – |
| O=C(O)c1cc(-c2ccc(-c3ccc(Oc4ccccc4)cc3)o2)nc2ccc([N+](=O)[O-])cc12 | 12.7 µM | – |
| CC(C)(C)OC(=O)Nc1cccc(-c2ccc(-c3cc(C(=O)O)c4cc([N+](=O)[O-])ccc4n3)o2)c1 | 110 µM | – |
| CCCCc1ccc(-c2ccc(-c3cc(C(=O)O)c4c(Cl)cccc4n3)o2)cc1 | 135 µM | – |
| CCCCc1ccc(-c2ccc(-c3cc(C(=O)O)c4cc(-c5ccccc5)ccc4n3)o2)cc1 | 124 µM | – |
| CCCCc1ccc(-c2ccc(-c3cc(C(=O)O)c4cc(Cl)c(Cl)cc4n3)o2)cc1 | 90.1 µM | – |
| CCCCCc1ccc(-c2ccc(-c3cc(C(=O)O)c4cc([N+](=O)[O-])ccc4n3)o2)cc1 | 8.77 µM | – |
| CCCCc1ccc(-c2cncc(-c3cc(C(=O)O)c4cc([N+](=O)[O-])ccc4n3)c2)cc1 | > 150 µM | – |
| CCCOc1ccccc1-c1ccc(-c2cc(C(=O)O)c3cc([N+](=O)[O-])ccc3n2)o1 | 45.5 µM | – |
| CCCCc1ccc(-c2ccc(-c3cc(C(=O)O)c4cc(I)ccc4n3)o2)cc1 | 41.5 µM | – |
| CCCOc1ccc(-c2ccc(-c3cc(C(=O)O)c4cc([N+](=O)[O-])ccc4n3)o2)cc1 | 45.7 µM | – |
| CCCOc1cccc(-c2ccc(-c3cc(C(=O)O)c4cc([N+](=O)[O-])ccc4n3)o2)c1 | 62.1 µM | – |
| CCCCc1ccc(-c2ccc(-c3cc(C(=O)O)c4cc(C(C)C)ccc4n3)o2)cc1 | 107 µM | – |
| CCCCc1ccc(-c2ccc(-c3cc(C(=O)O)c4ccc(F)cc4n3)o2)cc1 | 46.6 µM | – |
| Nc1ncnc2c1ncn2[C@@H]1O[C@H](COP(=O)(O)OP(=O)(O)O)[C@@H](O)[C@H]1O | – | inhibition [8]: Active |
| CCCCc1ccc(-c2ccc(-c3cc(C(=O)O)c4cc([N+](=O)[O-])ccc4n3)cc2)cc1 | 54.8 µM | – |
| CCCCc1ccc(-c2ccc(-c3cc(C(=O)O)c4cc(Br)ccc4n3)o2)cc1 | – | inhibition [9]: Active; EC50 [2, 14]: 2.13 µM; IC50 [10]: 28.7 µM; inhibition [11]: Active; inhibition [12]: Active; inhibition [13]: Active |
| CCCCc1ccc(-c2ccc(-c3cc(C(=O)O)c4cc(CC)ccc4n3)o2)cc1 | 147 µM | – |
| CCCCc1ccc(-c2ccc(-c3cc(C(=O)O)c4cc(C)ccc4n3)o2)cc1 | 105 µM | – |
| CCCCc1ccc(-c2ccc(-c3cc(C(=O)O)c4cccc([N+](=O)[O-])c4n3)o2)cc1 | – | EC50 [1]: 27.5 µM |
| Nc1cccc(-c2ccc(-c3cc(C(=O)O)c4cc([N+](=O)[O-])ccc4n3)o2)c1 | > 150 µM | EC50 ([2]; bjab): Not Active |
